Reference: patent US12268770B2, “Use of cell membrane-bound signaling factors” (AiVita Biomedical, Inc., priority 2017, dated 2025)

System: plucked human hair follicles
Assay: ex vivo culture of plucked human hair
Assay type: cell-based
Details: 0.25 mM; 5 days of exposure; no other growth factors
Experimental: Plucked human hair with evident presence of the bulb area were immersed immediately after collection in cell growth media. Some of the hair samples were exposed to with lipid-modified protein/MBCD complexes (loaded MBCD) from embryonic stem cell culture as described in Example 2 (referred to as active ingredient), or unloaded MBCD as control, at the same concentration of 0.25 mM of the cyclodextrin component. No other growth factors (e.g., EGF, KGF, etc) were used in the hair follicle cultures.

In the case of methyl-β-cyclodextrin [unloaded MBCD], the “status of follicles in culture” value is reported as “underwent senescence and detached from the substrate”.
